The source of these data is patent US7456172B2, “Succinoylamino benzodiazepines as inhibitors of Aβ protein production” (Bristol-Myers Squibb Pharma Company, priority 1998, dated 2008).

Where a name gives a salt, the structure may show the parent alone.

With `C=CC[C@H](C(N)=O)[C@@H](CC(C)C)C(=O)NC1N=C(c2cccnc2)c2ccccc2N(C)C1=O` (stereo partly shown), the melting point (usually the temperature, or range, at which the solid turns liquid) was 251 to 253 °C.

With `C=CC[C@H](C(N)=O)[C@@H](CC(C)C)C(=O)NC1N=C(N2CCOCC2)c2ccccc2N(C)C1=O` (stereo partly drawn) [Example 19, (2R,3S) N1-[1,3-dihydro-1-methyl-2-oxo-5-(N-morpholino)-2H-1,4-benzodiazepin-3-yl]-2-(2-methylpropyl)-3-allyl-butanediamide], the melting point was 145 to 151 °C.

`C=CC[C@H](C(N)=O)[C@@H](CC(C)C)C(=O)NC1N=C(c2cccc(OC)c2)c2ccccc2N(C)C1=O` (stereo partly shown) returned a melting point of 225 to 230 °C.

On to `C=CC[C@H](C(N)=O)[C@@H](CC(C)C)C(=O)NC1N=C(N2CCCCC2)c2ccccc2N(C)C1=O` (stereo partly drawn) [Example 22, (2R,3S) N1-[1,3-dihydro-1-methyl-2-oxo-5-(N-piperidinyl)-2H-1,4-benzodiazepin-3-yl]-2-(2-methylpropyl)-3-allyl-butanediamide], for which the melting point lay in the range of 231 to 238 °C.

In the case of `C=CC[C@H](C(N)=O)[C@@H](CC(C)C)C(=O)NC1N=C(N(C)c2ccccc2)c2ccccc2N(C)C1=O` (stereo partly drawn) [Example 21, (2R,3S) N1-[1,3-dihydro-1-methyl-2-oxo-5-(N-methyl-N-phenylamino)-2H-1,4-benzodiazepin-3-yl]-2-(2-methylpropyl)-3-allyl-butanediamide], the melting point was 266.6 to 267.8 °C.

In turn, `C=CC[C@H](C(N)=O)[C@@H](CC(C)C)C(=O)NC1C(=O)N(C)c2ccccc2-c2ccccc21` (stereo partly drawn) [Example 47, (2R,3S) N1-[6,7-dihydro-5-methyl-6-oxo-5H-dibenz[b,d]azepin-7-yl]-2-(2-methylpropyl)-3-allyl-butanediamide] came in with a melting point of 137 to 145 °C.

For the compound `C=CC[C@H](C(N)=O)[C@@H](CC(C)C)C(=O)NC1N=C(N(C)C)c2ccccc2N(C)C1=O` (stereo partly drawn) [Example 20, (2R,3S) N1-[1,3-dihydro-1-methyl-2-oxo-5-(dimethylamino)-2H-1,4-benzodiazepin-3-yl]-2-(2-methylpropyl)-3-allyl-butanediamide], the melting point is 230 to 232 °C.

In the case of `C=CC[C@H](C(N)=O)[C@@H](CC(C)C)C(=O)NC1N=C(N2CCCCCC2)c2ccccc2N(C)C1=O` (stereo partly drawn) [Example 23, (2R,3S) N1-[1,3-dihydro-1-methyl-2-oxo-5-(N-homopiperidinyl)-2H-1,4-benzodiazepin-3-yl]-2-(2-methylpropyl)-3-allyl-butanediamide], the melting point is 232 to 237 °C.

`C=CC[C@H](C(N)=O)[C@@H](CC(C)C)C(=O)NC1N=C(c2ccccc2)c2cc(OC)ccc2N(C)C1=O` (stereo partly shown) yielded a melting point of 244 to 255 °C.

On to `CC(C)C[C@@H](C(=O)N[C@H]1N=C(c2ccccc2)c2ccccc2N(C)C1=O)[C@@H](CC1CC1)C(N)=O` (as salt: succinate), for which the melting point is 146 to 148 °C.
